Measurements taken from EP1672365A1, “Means and methods for determining and/or influencing cellular transportation” (priority 2004, dated 2006).
“Also recorded” adds a separate entry of the source.

Key:
[1] = target: T1, Bcrp1 (Mus musculus, UniProt Q7TMS5); assay: Milk secretion of radiolabelled compounds after intravenous administration to lactating wild-type and Bcrp1-/- mice; assay type: in vivo; design: Bcrp1 was detected primarily in the apical membrane of alveolar epithelial cells; from tissue; host or cells: mammary gland of lactating wild-type mice (Bcrp1-/- mice as control); conditions: for milk secretion in Bcrp1-/- compared to wild-type mice: lactating wild-type vs Bcrp1-/- mice; for milk-to-plasma (M/P) ratio: lactating Bcrp1-/- mice; for milk-to-plasma (M/P) ratio / milk secretion in wild-type mice: 1 mg kg-1 intravenously, 30 min; for milk secretion in wild-type mice: lactating wild-type mice
T1 sequence (Q7TMS5 1-657): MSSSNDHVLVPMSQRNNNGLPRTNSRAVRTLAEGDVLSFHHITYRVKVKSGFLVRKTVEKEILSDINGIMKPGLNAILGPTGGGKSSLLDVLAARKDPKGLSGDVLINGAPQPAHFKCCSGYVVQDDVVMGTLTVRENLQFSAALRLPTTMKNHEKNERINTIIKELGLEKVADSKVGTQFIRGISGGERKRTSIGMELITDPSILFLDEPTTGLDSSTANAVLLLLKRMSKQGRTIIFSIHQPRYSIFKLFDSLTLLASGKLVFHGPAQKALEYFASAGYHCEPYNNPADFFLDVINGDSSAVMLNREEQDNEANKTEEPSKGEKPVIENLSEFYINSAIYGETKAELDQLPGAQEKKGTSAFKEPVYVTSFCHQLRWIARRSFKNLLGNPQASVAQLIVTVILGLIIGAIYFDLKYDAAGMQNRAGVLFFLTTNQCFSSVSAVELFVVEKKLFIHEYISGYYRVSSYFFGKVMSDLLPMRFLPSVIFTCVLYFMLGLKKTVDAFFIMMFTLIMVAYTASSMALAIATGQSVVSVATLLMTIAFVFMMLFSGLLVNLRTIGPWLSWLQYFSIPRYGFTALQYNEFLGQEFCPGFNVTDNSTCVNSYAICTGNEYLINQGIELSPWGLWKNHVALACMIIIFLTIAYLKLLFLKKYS
Method: (§1) For intravenous drug administration, 5 µl drug solution per g body weight was injected into the tail vein of mice lightly anesthetised with methoxyflurane. Levels of radioactivity in plasma and milk were determined by liquid scintillation counting. Measurements of drug secretion into the milk were done in lactating dams with pups of approximately 10 days old. To stimulate milk secretion, oxytocin (200 µl of an 1 I.U. ml^-1 solution) was administered subcutaneously to lactating dams at 30 min before milk was collected. After intravenous administration of a drug, at the indicated time approximately 50 µl milk was collected from the 4th and 5th mammary glands by gentle vacuum suction. Immediately after milk collection, a small blood sample was collected from the tail.

[2] = system: Bcrp1; assay: Inhibition of Bcrp1-mediated milk secretion of topotecan by GF120918; assay type: in vivo; conditions: GF120918 250 mg/kg orally 2 hours before [14C]-topotecan 1 mg/kg i.v., lactating mice
Method: GF120918 was suspended at […] in water for injection and concentrated stock vehicle (1:1). The concentrated stock vehicle consisted of hydroxypropyl methyl cellulose (10 g/l) and 2% Tween 80 in water for injection. Animals were administered GF120918 (250 mg/kg; 10 µl of drug solution/g body weight) by gavage into the stomach at 2 hours before [^14C]-topotecan injection. [^14C]-topotecan (1 mg/kg) was injected into the vein of mice lightly anesthetized with methoxyflurane. To stimulate milk secretion, oxytocin (200 µl of 1 I.U./ml solution) was administered subcutaneously to lactating dams at 15 min before each milk sample was collected. At indicated time points (15, 30, 60 and 120 min after [^14C]-topotecan injection), 50 µl of milk was collected from the mammary glands by gentle vacuum suction. […] At the last sampling point, animals were sacrificed by cardiac puncture after anesthesia with methoxyflurane.

[3] = target: T2, human BCRP (Homo sapiens, UniProt Q9UNQ0); assay: Vesicular transport assay (inside-out vesicle uptake, Sf9 membrane vesicles); assay type: biochemical; conditions: 3H-riboflavin 0.25 µM, vesicles from Sf9 cells with BCRP-expressing or wild-type baculovirus, 4 mM ATP
T2 construct: made in house; host or cells: Sf9 insect cells infected with BCRP-expressing baculovirus (membrane vesicles)
T2 sequence (Q9UNQ0 1-655): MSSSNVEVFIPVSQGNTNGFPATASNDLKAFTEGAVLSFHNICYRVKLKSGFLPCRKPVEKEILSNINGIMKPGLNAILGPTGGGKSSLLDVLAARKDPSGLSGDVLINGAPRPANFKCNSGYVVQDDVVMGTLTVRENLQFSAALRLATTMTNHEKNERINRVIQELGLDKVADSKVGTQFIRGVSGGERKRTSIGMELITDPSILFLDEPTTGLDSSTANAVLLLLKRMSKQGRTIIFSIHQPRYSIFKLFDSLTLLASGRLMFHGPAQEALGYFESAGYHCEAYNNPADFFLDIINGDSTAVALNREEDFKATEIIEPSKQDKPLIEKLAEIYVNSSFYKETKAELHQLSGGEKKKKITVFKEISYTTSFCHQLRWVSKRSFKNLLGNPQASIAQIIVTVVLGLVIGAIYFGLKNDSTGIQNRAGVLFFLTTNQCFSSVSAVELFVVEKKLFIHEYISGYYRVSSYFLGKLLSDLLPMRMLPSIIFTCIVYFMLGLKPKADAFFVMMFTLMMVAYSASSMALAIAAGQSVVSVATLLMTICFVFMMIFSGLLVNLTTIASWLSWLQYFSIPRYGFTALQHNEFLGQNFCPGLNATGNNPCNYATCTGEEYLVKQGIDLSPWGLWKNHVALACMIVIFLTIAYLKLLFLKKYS
Method: Vesicular transport assays were performed as described (Ozvegy, C., et al. Functional characterization of the human multidrug transporter, ABCG2, expressed in insect cells. Biochem. Biophys. Res. Commun. 285, 111-117 (2001); Zelcer, N., et al. Evidence for two interacting ligand-binding sites in human MRP2 (ABCC2). J. Biol. Chem. 278, 23538-23544 (2003)), using vesicles from Sf9 cells infected with BCRP-expressing or wild-type baculovirus, in the presence or absence of 4 mM ATP. ATP-dependent transport was calculated by subtracting the uptake in absence of ATP from that in the presence of ATP.

[4] = target: T1, Bcrp1; conditions: in vivo
Method: as §1
Samples were protected from light during the whole sample pre-treatment. Methanol (4 times the sample volume) was added to plasma and milk samples to precipitate proteins. […] The flow was 1.0 ml min^-1 and the detection was performed fluorimetrically using a FP920 Intelligent Fluorescence Detector (Jasco International Co. Ltd., Tokyo, Japan) with excitation/emission wavelengths set at 372/520 nm and 40 nm bandwidth. The capacity of the flow-cell of the fluorescence detector was 16 µl. […] Calibration curves were calculated by least-squares linear regression using a weighting factor of the reciprocal of the concentration.

Compound: vitamin B12
- milk secretion in Bcrp1-/- compared to wild-type mice [1]: not affected

Compound: Nc1nc2ncc(CNc3ccc(C(=O)N[C@@H](CCC(=O)O)C(=O)O)cc3)nc2c(=O)[nH]1 [folic acid]
- milk secretion in Bcrp1-/- compared to wild-type mice [1]: not affected

Compound: C[C@]12CC[C@H](OS(=O)(=O)O)CC1=CC[C@@H]1[C@@H]2CC[C@]2(C)C(=O)CC[C@@H]12 [DHEAS, dehydroepiandrosterone-sulfate]
- milk secretion in Bcrp1-/- compared to wild-type mice [1]: not affected

Compound: COc1cc2c(cc1OC)CN(CCc1ccc(NC(=O)c3cccc4c(=O)c5cccc(OC)c5[nH]c34)cc1)CC2 [GF120918, N-{4-[2-(1,2,3,4-tetrahydro-6,7-dimethoxy-2-isoquinolinyl)-ethyl]-phenyl}-9,10-dihydro-5-methoxy-9-oxo-4-acridine carboxamide]
- effect on active secretion of topotecan into the milk by Bcrp1 [2]: effectively reversed; also recorded: capable of at least in part inhibiting transport of topotecan into the milk

Compound: CC[C@@]1(O)C(=O)OCc2c1cc1n(c2=O)Cc2cc3c(CN(C)C)c(O)ccc3nc2-1 [topotecan]
- milk-to-plasma (M/P) ratio [1]: <= 1
- milk secretion in wild-type mice [1]: highly concentrated into the milk

Compound: Cc1cc2nc3c(=O)[nH]c(=O)nc-3n(C[C@H](O)[C@H](O)[C@H](O)CO)c2cc1C [riboflavin]
- ATP-dependent transport by human BCRP [3]: confirmed ATP-dependent transport
- decrease in the endogenous milk secretion [4]: 67 fold

Compound: Cn1c(N)nc2ncc(-c3ccccc3)cc21 [PhIP, 2-amino-1-methyl-6-phenylimidazo[4,5-b]pyridine]
- milk-to-plasma (M/P) ratio [1]: <= 1
- milk secretion in wild-type mice [1]: highly concentrated into the milk
